Experimental data: patent publication US12077503B2, “Substituted cyclic amides and their use as herbicides” (FMC CORPORATION, priority 2015, dated 2024)

Legend:
Assay type in all cases: in vivo
[1] = system: ivy-leaved morning glory (Ipomoea hederacea); test: Test G Post-Emergence Protocol; conditions: Ipomoea, post-emergence, 312 h; for pest or weed control at 15.625 g/ha: 15.625 g ai/ha, evaluated after 13 days (100=total damage to plant; 0=no damage to plant), read-out: Morningglory, Ivy-leaved damage rating; for pest or weed control at 62.5 g/ha: 62.5 g ai/ha, read-out: Morningglory, Ivy-leaved damage rating (100=total damage to plant; 0=no damage to plant); for pest or weed control at 62.5 g/ha / pest or weed control at 250 g/ha: evaluated after 13 days; for pest or weed control at 250 g/ha: 250 g ai/ha, read-out: damage to plant, Morningglory, Ivy-leaved (100=total damage to plant; 0=no damage to plant)
Procedure, shortened: (§1)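 Damage was rated 13 days after treatment from 0 (none) to 100 (plant killed). Compound was applied as a spray at 15.625, 62.5 or 250 g/ha in 50:50 acetone/water containing 0.5% Tween 20, onto 8-day-old potted plants kept in a glasshouse (24/16 °C, 14 h light, 65% humidity).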

[2] = system: corn (Zea mays); test: Test G Post-Emergence Protocol; conditions: Zea mays, post-emergence, 312 h; for plant injury at 15.625 g/ha: 15.625 g ai/ha, evaluated after 13 days (100=total damage to plant; 0=no damage to plant), read-out: Corn damage rating; for plant injury at 62.5 g/ha: 62.5 g ai/ha, read-out: Corn damage rating (100=total damage to plant; 0=no damage to plant); for plant injury at 62.5 g/ha / plant injury at 250 g/ha: evaluated after 13 days; for plant injury at 250 g/ha: 250 g ai/ha, read-out: damage to plant, Corn (100=total damage to plant; 0=no damage to plant)
Procedure, shortened: as §1

[3] = system: giant foxtail (Setaria faberi); test: Test G Post-Emergence Protocol; conditions: Setaria faberi, post-emergence, 312 h; for pest or weed control at 15.625 g/ha: 15.625 g ai/ha, evaluated after 13 days (100=total damage to plant; 0=no damage to plant), read-out: Foxtail, Giant damage rating; for pest or weed control at 62.5 g/ha: 62.5 g ai/ha, read-out: Foxtail, Giant damage rating (100=total damage to plant; 0=no damage to plant); for pest or weed control at 62.5 g/ha / pest or weed control at 250 g/ha: evaluated after 13 days; for pest or weed control at 250 g/ha: 250 g ai/ha, read-out: damage to plant, Foxtail, Giant (100=total damage to plant; 0=no damage to plant)
Procedure, shortened: as §1

[4] = system: redroot pigweed (Amaranthus retroflexus); test: Test G Post-Emergence Protocol; conditions: Amaranthus retroflexus, post-emergence, 312 h; for pest or weed control at 15.625 g/ha: 15.625 g ai/ha, evaluated after 13 days (100=total damage to plant; 0=no damage to plant), read-out: Pigweed, Redroot damage rating; for pest or weed control at 62.5 g/ha: 62.5 g ai/ha, read-out: Pigweed, Redroot damage rating (100=total damage to plant; 0=no damage to plant); for pest or weed control at 62.5 g/ha / pest or weed control at 250 g/ha: evaluated after 13 days; for pest or weed control at 250 g/ha: 250 g ai/ha, read-out: damage to plant, Pigweed, Redroot (100=total damage to plant; 0=no damage to plant)
Procedure, shortened: as §1

[5] = system: velvetleaf (Abutilon theophrasti); test: Test G Post-Emergence Protocol; conditions: Abutilon theophrasti, post-emergence, 312 h; for pest or weed control at 15.625 g/ha: 15.625 g ai/ha, evaluated after 13 days (100=total damage to plant; 0=no damage to plant), read-out: Velvetleaf damage rating; for pest or weed control at 62.5 g/ha: 62.5 g ai/ha, read-out: Velvetleaf damage rating (100=total damage to plant; 0=no damage to plant); for pest or weed control at 62.5 g/ha / pest or weed control at 250 g/ha: evaluated after 13 days; for pest or weed control at 250 g/ha: 250 g ai/ha, read-out: damage to plant, Velvetleaf (100=total damage to plant; 0=no damage to plant)
Procedure, shortened: as §1

[6] = system: barnyardgrass (Echinochloa crus-galli); test: Test G Post-Emergence Protocol; conditions: Echinochloa crus-galli, post-emergence, 312 h; for pest or weed control at 15.625 g/ha: 15.625 g ai/ha, evaluated after 13 days (100=total damage to plant; 0=no damage to plant), read-out: Barnyardgrass damage rating; for pest or weed control at 62.5 g/ha: 62.5 g ai/ha, read-out: Barnyardgrass damage rating (100=total damage to plant; 0=no damage to plant); for pest or weed control at 62.5 g/ha / pest or weed control at 250 g/ha: evaluated after 13 days; for pest or weed control at 250 g/ha: 250 g ai/ha, read-out: damage to plant, Barnyardgrass (100=total damage to plant; 0=no damage to plant)
Procedure, shortened: as §1

[7] = system: ivy-leaved morning glory (Ipomoea hederacea); test: Test G Pre-Emergence Protocol; conditions: Ipomoea, pre-emergence, 312 h, evaluated after 13 days; for pest or weed control at 15.625 g/ha: 15.625 g ai/ha, read-out: Morning-glory, Ivy-leaved damage rating (100=total damage to plant; 0=no damage to plant); for pest or weed control at 62.5 g/ha: 62.5 g ai/ha, 100=total damage to plant, 0=no damage to plant, read-out: plant damage rating, Morningglory, Ivy-leaved; for pest or weed control at 250 g/ha: 250 g ai/ha, read-out: Morningglory, Ivy-leaved damage rating (100=total damage to plant; 0=no damage to plant)
Procedure, shortened: (§2)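 Visual injury (0–100) at day 13 after a single pre-emergence spray. Rates: 15.625, 62.5, 250 g/ha in acetone–water 50:50 with 0.5% Tween 20. Growth conditions: 24/16° C, 14 h light, 65% humidity.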

[8] = system: corn (Zea mays); test: Test G Pre-Emergence Protocol; conditions: Zea mays, pre-emergence, 312 h, evaluated after 13 days; for plant injury at 15.625 g/ha: 15.625 g ai/ha; for plant injury at 15.625 g/ha / plant injury at 250 g/ha: read-out: Corn damage rating (100=total damage to plant; 0=no damage to plant); for plant injury at 62.5 g/ha: 62.5 g ai/ha, 100=total damage to plant, 0=no damage to plant, read-out: plant damage rating, Corn; for plant injury at 250 g/ha: 250 g ai/ha
Procedure, shortened: as §2

[9] = system: giant foxtail (Setaria faberi); test: Test G Pre-Emergence Protocol; conditions: Setaria faberi, pre-emergence, 312 h, evaluated after 13 days; for pest or weed control at 15.625 g/ha: 15.625 g ai/ha; for pest or weed control at 15.625 g/ha / pest or weed control at 250 g/ha: read-out: Foxtail, Giant damage rating (100=total damage to plant; 0=no damage to plant); for pest or weed control at 62.5 g/ha: 62.5 g ai/ha, 100=total damage to plant, 0=no damage to plant, read-out: plant damage rating, Foxtail, Giant; for pest or weed control at 250 g/ha: 250 g ai/ha
Procedure, shortened: as §2

[10] = system: redroot pigweed (Amaranthus retroflexus); test: Test G Pre-Emergence Protocol; conditions: Amaranthus retroflexus, pre-emergence, 312 h, evaluated after 13 days; for pest or weed control at 15.625 g/ha: 15.625 g ai/ha; for pest or weed control at 15.625 g/ha / pest or weed control at 250 g/ha: read-out: Pigweed, Redroot damage rating (100=total damage to plant; 0=no damage to plant); for pest or weed control at 62.5 g/ha: 62.5 g ai/ha, 100=total damage to plant, 0=no damage to plant, read-out: plant damage rating, Pigweed, Redroot; for pest or weed control at 250 g/ha: 250 g ai/ha
Procedure, shortened: as §2

[11] = system: velvetleaf (Abutilon theophrasti); test: Test G Pre-Emergence Protocol; conditions: Abutilon theophrasti, pre-emergence, 312 h, evaluated after 13 days; for pest or weed control at 15.625 g/ha: 15.625 g ai/ha; for pest or weed control at 15.625 g/ha / pest or weed control at 250 g/ha: read-out: Velvetleaf damage rating (100=total damage to plant; 0=no damage to plant); for pest or weed control at 62.5 g/ha: 62.5 g ai/ha, 100=total damage to plant, 0=no damage to plant, read-out: plant damage rating, Velvetleaf; for pest or weed control at 250 g/ha: 250 g ai/ha
Procedure, shortened: as §2

[12] = system: barnyardgrass (Echinochloa crus-galli); test: Test G Pre-Emergence Protocol; conditions: Echinochloa crus-galli, pre-emergence, 312 h, evaluated after 13 days; for pest or weed control at 15.625 g/ha: 15.625 g ai/ha, read-out: Barnyard grass damage rating (100=total damage to plant; 0=no damage to plant); for pest or weed control at 62.5 g/ha: 62.5 g ai/ha, 100=total damage to plant, 0=no damage to plant, read-out: plant damage rating, Barnyardgrass; for pest or weed control at 250 g/ha: 250 g ai/ha, read-out: Barnyardgrass damage rating (100=total damage to plant; 0=no damage to plant)
Procedure, shortened: as §2

| Structure (SMILES) | pest or weed control at 15.625 g/ha [1] | pest or weed control at 62.5 g/ha [1] | pest or weed control at 250 g/ha [1] | plant injury at 15.625 g/ha [2] | plant injury at 62.5 g/ha [2] | plant injury at 250 g/ha [2] | pest or weed control at 15.625 g/ha [3] | pest or weed control at 62.5 g/ha [3] | pest or weed control at 250 g/ha [3] | pest or weed control at 15.625 g/ha [4] | pest or weed control at 62.5 g/ha [4] | pest or weed control at 250 g/ha [4] | pest or weed control at 15.625 g/ha [5] | pest or weed control at 62.5 g/ha [5] | pest or weed control at 250 g/ha [5] | pest or weed control at 15.625 g/ha [6] | pest or weed control at 62.5 g/ha [6] | pest or weed control at 250 g/ha [6] | pest or weed control at 15.625 g/ha [7] | pest or weed control at 62.5 g/ha [7] | also measured |
| --- | --- | --- | --- | --- | --- | --- | --- | --- | --- | --- | --- | --- | --- | --- | --- | --- | --- | --- | --- | --- | --- |
| CN1C[C@@H](c2ccc(C(F)(F)F)cc2)[C@H](C(=O)Nc2cccc3c2CCC3)C1=O (racemic) [Compound 1624] | 10% | 20% | 20% | 0% | 10% | 10% | 10% | 80% | 80% | 0% | 30% | 20% | 0% | 10% | 10% | 0% | 20% | 70% | 0% | 0% | pest or weed control at 250 g/ha [7]: 0%; plant injury at 15.625 g/ha [8]: 0%; plant injury at 62.5 g/ha [8]: 0%; plant injury at 250 g/ha [8]: 0%; pest or weed control at 15.625 g/ha [9]: 20%; pest or weed control at 62.5 g/ha [9]: 60%; pest or weed control at 250 g/ha [9]: 80%; pest or weed control at 15.625 g/ha [10]: 0%; pest or weed control at 62.5 g/ha [10]: 0%; pest or weed control at 250 g/ha [10]: 20%; pest or weed control at 15.625 g/ha [11]: 0%; pest or weed control at 62.5 g/ha [11]: 0%; pest or weed control at 250 g/ha [11]: 10%; pest or weed control at 15.625 g/ha [12]: 0%; pest or weed control at 62.5 g/ha [12]: 0%; pest or weed control at 250 g/ha [12]: 80% |
| Cc1cc(NC(=O)[C@@H]2C(=O)N(C)C[C@H]2c2ccc(C(F)(F)F)cc2)[nH]n1 (racemic) [Compound 1626] | 0% | 0% | 0% | 0% | 0% | 0% | 0% | 0% | 0% | 0% | 0% | 0% | 0% | 0% | 0% | 0% | 0% | 0% | 0% | 0% | pest or weed control at 250 g/ha [7]: 0%; plant injury at 15.625 g/ha [8]: 0%; plant injury at 62.5 g/ha [8]: 0%; plant injury at 250 g/ha [8]: 0%; pest or weed control at 15.625 g/ha [9]: 0%; pest or weed control at 62.5 g/ha [9]: 0%; pest or weed control at 250 g/ha [9]: 0%; pest or weed control at 15.625 g/ha [10]: 0%; pest or weed control at 62.5 g/ha [10]: 0%; pest or weed control at 250 g/ha [10]: 0%; pest or weed control at 15.625 g/ha [11]: 0%; pest or weed control at 62.5 g/ha [11]: 0%; pest or weed control at 250 g/ha [11]: 0%; pest or weed control at 15.625 g/ha [12]: 0%; pest or weed control at 62.5 g/ha [12]: 0%; pest or weed control at 250 g/ha [12]: 0% |
| Cc1nccc(NC(=O)[C@@H]2C(=O)N(C)C[C@H]2c2ccc(C(F)(F)F)cc2)c1C (racemic) [Compound 1630] | 0% | 0% | 0% | 0% | 0% | 0% | 0% | 0% | 0% | 0% | 0% | 0% | 0% | 0% | 0% | 0% | 0% | 0% | 0% | 0% | pest or weed control at 250 g/ha [7]: 0%; plant injury at 15.625 g/ha [8]: 0%; plant injury at 62.5 g/ha [8]: 0%; plant injury at 250 g/ha [8]: 0%; pest or weed control at 15.625 g/ha [9]: 0%; pest or weed control at 62.5 g/ha [9]: 0%; pest or weed control at 250 g/ha [9]: 0%; pest or weed control at 15.625 g/ha [10]: 0%; pest or weed control at 62.5 g/ha [10]: 0%; pest or weed control at 250 g/ha [10]: 0%; pest or weed control at 15.625 g/ha [11]: 0%; pest or weed control at 62.5 g/ha [11]: 0%; pest or weed control at 250 g/ha [11]: 0%; pest or weed control at 15.625 g/ha [12]: 0%; pest or weed control at 62.5 g/ha [12]: 0%; pest or weed control at 250 g/ha [12]: 0% |
